Experiment: xn = mol fraction of the nth substance listed
Conditions: Liquid, Pycnometric method

CCCCCl [1-chlorobutane] + O=C=O
Conditions	mass density [kg/m3]
322.7 K, 8980 kPa, x1 = 0.0243	377
322.7 K, 8990 kPa, x1 = 0.0744	690
322.7 K, 9050 kPa, x1 = 0.0243	387
322.7 K, 9110 kPa, x1 = 0.0243	397
322.7 K, 9120 kPa, x1 = 0.0981	754
322.7 K, 9140 kPa, x1 = 0.0744	698
322.7 K, 9170 kPa, x1 = 0.0243	407
322.7 K, 9240 kPa, x1 = 0.0243	418
322.7 K, 9280 kPa, x1 = 0.1488	802
322.7 K, 9290 kPa, x1 = 0.0744	705
322.7 K, 9300 kPa, x1 = 0.0981	759
322.7 K, 9320 kPa, x1 = 0.0243	430
322.7 K, 9390 kPa, x1 = 0.0243	443
322.7 K, 9470 kPa, x1 = 0.0243	456
322.7 K, 9470 kPa, x1 = 0.0744	713
322.7 K, 9500 kPa, x1 = 0.0981	764
322.7 K, 9560 kPa, x1 = 0.0243	470
322.7 K, 9600 kPa, x1 = 0.1488	807
322.7 K, 9630 kPa, x1 = 0.0243	482
322.7 K, 9700 kPa, x1 = 0.0243	494
322.7 K, 9700 kPa, x1 = 0.0744	721
322.7 K, 9720 kPa, x1 = 0.0981	769
322.7 K, 9740 kPa, x1 = 0.0243	501
322.7 K, 9790 kPa, x1 = 0.0243	507
322.7 K, 9810 kPa, x1 = 0.0243	510
322.7 K, 9940 kPa, x1 = 0.0744	729
322.7 K, 9950 kPa, x1 = 0.1488	811
322.7 K, 10080 kPa, x1 = 0.0981	777
322.7 K, 10210 kPa, x1 = 0.0744	738
322.7 K, 10310 kPa, x1 = 0.1488	815
322.7 K, 10480 kPa, x1 = 0.0981	785
322.7 K, 10520 kPa, x1 = 0.0744	746
322.7 K, 10730 kPa, x1 = 0.1488	820
322.7 K, 10870 kPa, x1 = 0.0744	755
322.7 K, 10920 kPa, x1 = 0.0981	792
322.7 K, 11110 kPa, x1 = 0.1488	823
322.7 K, 11230 kPa, x1 = 0.0744	764
322.7 K, 11440 kPa, x1 = 0.0981	802
322.7 K, 11540 kPa, x1 = 0.1488	828
322.7 K, 11680 kPa, x1 = 0.0744	773
322.7 K, 12000 kPa, x1 = 0.0981	810
322.7 K, 12020 kPa, x1 = 0.1488	832
322.7 K, 12170 kPa, x1 = 0.0744	782
322.7 K, 12270 kPa, x1 = 0.1488	835
322.7 K, 12520 kPa, x1 = 0.1488	837
322.7 K, 12600 kPa, x1 = 0.0981	818
322.7 K, 12720 kPa, x1 = 0.0744	792
322.7 K, 12780 kPa, x1 = 0.1488	839
322.7 K, 13030 kPa, x1 = 0.0981	824
322.7 K, 13270 kPa, x1 = 0.1488	844
322.7 K, 13320 kPa, x1 = 0.0744	802
322.7 K, 13530 kPa, x1 = 0.0981	830
322.7 K, 13570 kPa, x1 = 0.1488	846
322.7 K, 13850 kPa, x1 = 0.1488	849
322.7 K, 14020 kPa, x1 = 0.0744	812
322.7 K, 14030 kPa, x1 = 0.0981	836
322.7 K, 14170 kPa, x1 = 0.1488	851
322.7 K, 14470 kPa, x1 = 0.1488	853
322.7 K, 14590 kPa, x1 = 0.0981	843
322.7 K, 14600 kPa, x1 = 0.0744	820
322.7 K, 14740 kPa, x1 = 0.1488	856
322.7 K, 14960 kPa, x1 = 0.0744	824
322.7 K, 15170 kPa, x1 = 0.0981	849
322.7 K, 15190 kPa, x1 = 0.0744	828
324 K, 9110 kPa, x1 = 0.0483	519
324 K, 9140 kPa, x1 = 0.0483	527
324 K, 9190 kPa, x1 = 0.0483	537
324 K, 9250 kPa, x1 = 0.0483	546
324 K, 9310 kPa, x1 = 0.0483	556
324 K, 9370 kPa, x1 = 0.0483	566
324 K, 9450 kPa, x1 = 0.0483	576
324 K, 9540 kPa, x1 = 0.0483	587
324 K, 9630 kPa, x1 = 0.0483	599
324 K, 9750 kPa, x1 = 0.0483	611
324 K, 9850 kPa, x1 = 0.0483	620
324 K, 10010 kPa, x1 = 0.0483	633
324 K, 10200 kPa, x1 = 0.0483	646
324 K, 10420 kPa, x1 = 0.0483	660
324 K, 10690 kPa, x1 = 0.0483	674
324 K, 11030 kPa, x1 = 0.0483	689
324 K, 11440 kPa, x1 = 0.0483	705
324 K, 11960 kPa, x1 = 0.0483	721
324 K, 12550 kPa, x1 = 0.0483	738
324 K, 13030 kPa, x1 = 0.0483	749
